In BindingDB's records for doi:10.1021/acs.jmedchem.8b01436 (University of New South Wales, 2019):
Peptide text beside a SMILES is read from it.

Test: Inhibition of (2S,8S,11S,14S)-2-(4-aminobutyl)-14-(3-guanidinopropyl)-8-(4-hydroxybenzyl)-11-(hydroxymethyl)-4,7,10,13,16,32-hexaoxo-36-((3aS,4S,6aR)-2-oxohexahydro-1H-thieno[3,4-d]imidazol-4-yl)-19,22,25,28-tetraoxa-3,6,9,12,15,31-hexaazahexatriacontan-1-oic acid binding to human Hsp72 SBD expressed in Escherichia coli BL21 (DE3) by Western

| IC50 [µM] | SMILES |
| --- | --- |
| 87.3 | N=C(N)NCCC[C@H](NC(=O)[C@H](CO)NC(=O)[C@H](Cc1ccc(O)cc1)NC(=O)CNC(=O)[C@@H](N)CCCCN)C(=O)O (H-KGYSR-OH) |
| 248 | N=C(N)NCCC[C@H](NC(=O)[C@H](CO)NC(=O)[C@H](Cc1ccc(O)cc1)NC(=O)CNC(=O)[C@@H](N)CCCCN)C(=O)N[C@@H](CCCCN)C(=O)O (H-KGYSRK-OH) |
| 70 | C[C@H](NC(=O)[C@H](CCCCN)NC(=O)[C@H](CCCNC(=N)N)NC(=O)[C@H](CO)NC(=O)[C@H](Cc1ccc(O)cc1)NC(=O)CNC(=O)[C@@H](N)CCCCN)C(=O)O (H-KGYSRKA-OH) |
| 6.43 | C[C@H](NC(=O)[C@H](C)NC(=O)[C@H](CCCCN)NC(=O)[C@H](CCCNC(=N)N)NC(=O)[C@H](CO)NC(=O)[C@H](Cc1ccc(O)cc1)NC(=O)CNC(=O)[C@@H](N)CCCCN)C(=O)O (H-KGYSRKAA-OH) |
